Calls of active or inactive are those of the source. The calls are words filed in the database; no cut-off is given here.
Tests used:
[1] = target: Centromere-associated protein E (Homo sapiens) (UniProt Q02224); experiment: Inhibition of MT-stimulated CENP-E ATPase activity
[2] = target: Centromere-associated protein E (Homo sapiens) (UniProt Q02224); experiment: Inhibition of CENP-E ATPase activity
[3] = Lipophilicity, Log P of the compound; format: physicochemical; details: octanol/water; read-out: logP
[4] = target: Kinesin-like protein KIF20B (Homo sapiens) (UniProt Q96Q89); experiment: Inhibition of MPP1 ATPase activity
[5] = Antiproliferative activity against human hTERT-HME1 cells after 72 hrs by Alamar blue assay; format: cell-based
[6] = Antitumor activity against human LXFS 538 cells xenografted in nu/nu nude Charles river mouse assessed as inhibition of tumor growth dosed at 20 mg/kg on days 0, 2 and 4 and 15 mg/kg on days 17, 19, 24 measured after 10 days; format: functional
[7] = Distribution coefficient, log D of the compound at pH 7.4; format: physicochemical; details: octanol/water, read-out: logD
[8] = target: T1, Kinesin heavy chain isoform 5A (Homo sapiens) (UniProt Q12840); experiment: Inhibition of MT-stimulated Kif5a ATPase activity
T1 sequence (whole entry): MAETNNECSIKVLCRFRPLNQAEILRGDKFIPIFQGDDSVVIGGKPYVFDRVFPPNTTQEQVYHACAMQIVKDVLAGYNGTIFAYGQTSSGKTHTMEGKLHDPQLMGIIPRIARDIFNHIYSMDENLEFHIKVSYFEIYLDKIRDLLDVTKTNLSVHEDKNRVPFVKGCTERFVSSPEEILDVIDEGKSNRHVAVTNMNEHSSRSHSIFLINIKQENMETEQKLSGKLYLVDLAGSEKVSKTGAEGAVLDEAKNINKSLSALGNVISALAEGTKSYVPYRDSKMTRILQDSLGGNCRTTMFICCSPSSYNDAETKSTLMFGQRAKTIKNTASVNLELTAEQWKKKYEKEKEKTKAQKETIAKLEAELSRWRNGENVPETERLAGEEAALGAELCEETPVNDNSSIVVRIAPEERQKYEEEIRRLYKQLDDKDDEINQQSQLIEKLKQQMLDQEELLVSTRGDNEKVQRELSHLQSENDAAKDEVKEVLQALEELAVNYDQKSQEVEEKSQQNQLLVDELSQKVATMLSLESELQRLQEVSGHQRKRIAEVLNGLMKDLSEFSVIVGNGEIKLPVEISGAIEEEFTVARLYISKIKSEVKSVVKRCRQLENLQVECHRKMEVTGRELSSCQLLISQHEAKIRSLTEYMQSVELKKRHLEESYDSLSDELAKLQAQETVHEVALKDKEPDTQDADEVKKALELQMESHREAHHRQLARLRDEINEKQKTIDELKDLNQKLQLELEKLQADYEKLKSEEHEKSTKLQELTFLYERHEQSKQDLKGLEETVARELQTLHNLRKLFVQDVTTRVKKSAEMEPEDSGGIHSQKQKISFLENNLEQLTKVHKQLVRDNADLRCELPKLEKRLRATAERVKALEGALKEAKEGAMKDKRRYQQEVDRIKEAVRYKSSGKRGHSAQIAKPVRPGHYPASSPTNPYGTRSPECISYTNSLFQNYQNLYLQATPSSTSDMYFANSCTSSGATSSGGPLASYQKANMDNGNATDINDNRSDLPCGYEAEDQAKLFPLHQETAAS

[9] = target: Kinesin-like protein KIF20B (Homo sapiens) (UniProt Q96Q89); experiment: Inhibition of MT-stimulated MPP1 ATPase activity
HCT-116 = experiment: Antiproliferative activity against human HCT116 cells after 72 hrs by Alamar blue assay; format: functional; details: HCT-116, 72 h
NCI-H1299 = experiment: Antiproliferative activity against human NCI-H1299 cells after 72 hrs by Alamar blue assay; format: functional; details: NCI-H1299, 72 h
[10] = Turbidimetric solubility of the compound at pH 7.4; format: physicochemical; details: buffer
BXPC-3 = experiment: Antiproliferative activity against human BxPC3 cells after 72 hrs by Alamar blue assay; format: functional; details: BXPC-3, 72 h
[11] = target: T2, Kinesin-like protein KIF7 (Homo sapiens) (UniProt Q2M1P5); experiment: Inhibition of MT-stimulated Kif7 ATPase activity
T2 sequence (whole entry): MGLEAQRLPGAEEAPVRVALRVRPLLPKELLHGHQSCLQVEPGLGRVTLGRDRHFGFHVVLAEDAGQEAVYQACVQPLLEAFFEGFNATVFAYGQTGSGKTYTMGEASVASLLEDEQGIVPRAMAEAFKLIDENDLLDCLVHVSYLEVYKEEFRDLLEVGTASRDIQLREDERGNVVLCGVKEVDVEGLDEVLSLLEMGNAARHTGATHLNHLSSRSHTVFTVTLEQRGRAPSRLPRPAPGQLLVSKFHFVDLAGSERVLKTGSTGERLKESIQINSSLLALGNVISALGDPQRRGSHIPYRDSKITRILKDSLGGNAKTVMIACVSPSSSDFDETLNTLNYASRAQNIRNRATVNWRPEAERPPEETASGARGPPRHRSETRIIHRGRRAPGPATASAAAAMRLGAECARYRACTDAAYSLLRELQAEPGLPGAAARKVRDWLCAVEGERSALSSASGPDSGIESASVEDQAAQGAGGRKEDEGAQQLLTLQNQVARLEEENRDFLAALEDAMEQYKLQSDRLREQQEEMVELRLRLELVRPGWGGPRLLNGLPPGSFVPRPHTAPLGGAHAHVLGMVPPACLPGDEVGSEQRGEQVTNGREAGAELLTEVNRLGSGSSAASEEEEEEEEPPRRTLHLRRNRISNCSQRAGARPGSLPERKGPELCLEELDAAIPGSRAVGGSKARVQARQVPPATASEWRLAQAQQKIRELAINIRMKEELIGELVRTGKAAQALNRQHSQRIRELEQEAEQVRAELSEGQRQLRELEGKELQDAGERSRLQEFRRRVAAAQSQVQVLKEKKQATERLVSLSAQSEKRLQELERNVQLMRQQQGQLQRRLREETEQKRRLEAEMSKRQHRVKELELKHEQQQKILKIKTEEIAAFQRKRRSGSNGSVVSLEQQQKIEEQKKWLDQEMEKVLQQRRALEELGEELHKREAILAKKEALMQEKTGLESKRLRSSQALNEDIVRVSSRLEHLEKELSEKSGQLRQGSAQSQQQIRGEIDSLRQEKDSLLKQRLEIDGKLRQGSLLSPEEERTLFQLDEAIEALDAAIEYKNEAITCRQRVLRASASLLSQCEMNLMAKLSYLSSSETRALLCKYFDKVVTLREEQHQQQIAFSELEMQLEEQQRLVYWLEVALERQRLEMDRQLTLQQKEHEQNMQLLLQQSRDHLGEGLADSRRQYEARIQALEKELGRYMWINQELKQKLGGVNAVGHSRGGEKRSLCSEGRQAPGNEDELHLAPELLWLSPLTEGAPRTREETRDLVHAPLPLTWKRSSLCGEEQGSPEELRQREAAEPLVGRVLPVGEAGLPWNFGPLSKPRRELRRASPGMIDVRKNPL

Kinesin-like protein KIF20B (Homo sapiens), sequence (Q96Q89 whole entry): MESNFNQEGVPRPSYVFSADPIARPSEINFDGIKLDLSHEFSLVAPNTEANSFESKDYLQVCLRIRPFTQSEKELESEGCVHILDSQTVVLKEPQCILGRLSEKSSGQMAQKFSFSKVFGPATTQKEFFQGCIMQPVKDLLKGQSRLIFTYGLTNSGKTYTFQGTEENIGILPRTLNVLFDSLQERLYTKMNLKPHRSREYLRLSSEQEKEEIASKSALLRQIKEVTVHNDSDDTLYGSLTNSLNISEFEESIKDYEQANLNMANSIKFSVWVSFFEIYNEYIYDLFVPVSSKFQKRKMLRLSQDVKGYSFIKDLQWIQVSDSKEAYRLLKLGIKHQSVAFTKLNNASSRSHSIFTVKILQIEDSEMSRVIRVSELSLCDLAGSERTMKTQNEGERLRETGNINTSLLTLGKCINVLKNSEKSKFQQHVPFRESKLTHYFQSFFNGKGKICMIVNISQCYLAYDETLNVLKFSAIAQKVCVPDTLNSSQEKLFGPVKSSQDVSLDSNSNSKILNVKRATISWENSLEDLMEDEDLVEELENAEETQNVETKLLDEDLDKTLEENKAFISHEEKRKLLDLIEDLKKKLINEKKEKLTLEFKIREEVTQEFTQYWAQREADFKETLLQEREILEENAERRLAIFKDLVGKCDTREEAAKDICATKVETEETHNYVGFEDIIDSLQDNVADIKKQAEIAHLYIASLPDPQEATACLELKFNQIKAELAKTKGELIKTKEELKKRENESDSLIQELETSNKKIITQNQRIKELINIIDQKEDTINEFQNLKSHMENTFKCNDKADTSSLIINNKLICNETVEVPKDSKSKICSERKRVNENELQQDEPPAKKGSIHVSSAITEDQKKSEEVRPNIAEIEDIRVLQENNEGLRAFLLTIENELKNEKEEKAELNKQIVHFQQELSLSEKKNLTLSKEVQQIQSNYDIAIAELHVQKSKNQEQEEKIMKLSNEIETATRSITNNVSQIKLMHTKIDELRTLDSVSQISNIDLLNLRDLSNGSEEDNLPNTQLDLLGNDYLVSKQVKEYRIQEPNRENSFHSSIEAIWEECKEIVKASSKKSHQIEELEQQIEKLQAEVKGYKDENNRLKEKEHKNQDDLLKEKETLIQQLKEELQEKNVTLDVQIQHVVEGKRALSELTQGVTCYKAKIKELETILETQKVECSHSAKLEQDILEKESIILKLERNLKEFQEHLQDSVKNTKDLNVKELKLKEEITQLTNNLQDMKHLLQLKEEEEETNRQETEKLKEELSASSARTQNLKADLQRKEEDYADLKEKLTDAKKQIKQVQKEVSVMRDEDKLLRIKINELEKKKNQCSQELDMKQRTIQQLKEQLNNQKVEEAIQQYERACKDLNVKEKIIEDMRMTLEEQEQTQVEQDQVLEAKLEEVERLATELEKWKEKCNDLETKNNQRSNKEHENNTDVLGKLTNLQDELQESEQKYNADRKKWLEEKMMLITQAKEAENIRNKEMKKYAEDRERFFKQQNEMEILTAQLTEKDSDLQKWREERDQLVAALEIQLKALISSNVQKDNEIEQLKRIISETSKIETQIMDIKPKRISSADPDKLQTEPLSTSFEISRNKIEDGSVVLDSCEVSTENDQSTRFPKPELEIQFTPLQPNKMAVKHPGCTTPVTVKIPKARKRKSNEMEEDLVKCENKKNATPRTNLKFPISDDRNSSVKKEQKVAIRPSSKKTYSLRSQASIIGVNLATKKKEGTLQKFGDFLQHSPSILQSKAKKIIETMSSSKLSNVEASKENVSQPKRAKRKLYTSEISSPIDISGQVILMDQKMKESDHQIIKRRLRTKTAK
Centromere-associated protein E (Homo sapiens), sequence (Q02224 whole entry): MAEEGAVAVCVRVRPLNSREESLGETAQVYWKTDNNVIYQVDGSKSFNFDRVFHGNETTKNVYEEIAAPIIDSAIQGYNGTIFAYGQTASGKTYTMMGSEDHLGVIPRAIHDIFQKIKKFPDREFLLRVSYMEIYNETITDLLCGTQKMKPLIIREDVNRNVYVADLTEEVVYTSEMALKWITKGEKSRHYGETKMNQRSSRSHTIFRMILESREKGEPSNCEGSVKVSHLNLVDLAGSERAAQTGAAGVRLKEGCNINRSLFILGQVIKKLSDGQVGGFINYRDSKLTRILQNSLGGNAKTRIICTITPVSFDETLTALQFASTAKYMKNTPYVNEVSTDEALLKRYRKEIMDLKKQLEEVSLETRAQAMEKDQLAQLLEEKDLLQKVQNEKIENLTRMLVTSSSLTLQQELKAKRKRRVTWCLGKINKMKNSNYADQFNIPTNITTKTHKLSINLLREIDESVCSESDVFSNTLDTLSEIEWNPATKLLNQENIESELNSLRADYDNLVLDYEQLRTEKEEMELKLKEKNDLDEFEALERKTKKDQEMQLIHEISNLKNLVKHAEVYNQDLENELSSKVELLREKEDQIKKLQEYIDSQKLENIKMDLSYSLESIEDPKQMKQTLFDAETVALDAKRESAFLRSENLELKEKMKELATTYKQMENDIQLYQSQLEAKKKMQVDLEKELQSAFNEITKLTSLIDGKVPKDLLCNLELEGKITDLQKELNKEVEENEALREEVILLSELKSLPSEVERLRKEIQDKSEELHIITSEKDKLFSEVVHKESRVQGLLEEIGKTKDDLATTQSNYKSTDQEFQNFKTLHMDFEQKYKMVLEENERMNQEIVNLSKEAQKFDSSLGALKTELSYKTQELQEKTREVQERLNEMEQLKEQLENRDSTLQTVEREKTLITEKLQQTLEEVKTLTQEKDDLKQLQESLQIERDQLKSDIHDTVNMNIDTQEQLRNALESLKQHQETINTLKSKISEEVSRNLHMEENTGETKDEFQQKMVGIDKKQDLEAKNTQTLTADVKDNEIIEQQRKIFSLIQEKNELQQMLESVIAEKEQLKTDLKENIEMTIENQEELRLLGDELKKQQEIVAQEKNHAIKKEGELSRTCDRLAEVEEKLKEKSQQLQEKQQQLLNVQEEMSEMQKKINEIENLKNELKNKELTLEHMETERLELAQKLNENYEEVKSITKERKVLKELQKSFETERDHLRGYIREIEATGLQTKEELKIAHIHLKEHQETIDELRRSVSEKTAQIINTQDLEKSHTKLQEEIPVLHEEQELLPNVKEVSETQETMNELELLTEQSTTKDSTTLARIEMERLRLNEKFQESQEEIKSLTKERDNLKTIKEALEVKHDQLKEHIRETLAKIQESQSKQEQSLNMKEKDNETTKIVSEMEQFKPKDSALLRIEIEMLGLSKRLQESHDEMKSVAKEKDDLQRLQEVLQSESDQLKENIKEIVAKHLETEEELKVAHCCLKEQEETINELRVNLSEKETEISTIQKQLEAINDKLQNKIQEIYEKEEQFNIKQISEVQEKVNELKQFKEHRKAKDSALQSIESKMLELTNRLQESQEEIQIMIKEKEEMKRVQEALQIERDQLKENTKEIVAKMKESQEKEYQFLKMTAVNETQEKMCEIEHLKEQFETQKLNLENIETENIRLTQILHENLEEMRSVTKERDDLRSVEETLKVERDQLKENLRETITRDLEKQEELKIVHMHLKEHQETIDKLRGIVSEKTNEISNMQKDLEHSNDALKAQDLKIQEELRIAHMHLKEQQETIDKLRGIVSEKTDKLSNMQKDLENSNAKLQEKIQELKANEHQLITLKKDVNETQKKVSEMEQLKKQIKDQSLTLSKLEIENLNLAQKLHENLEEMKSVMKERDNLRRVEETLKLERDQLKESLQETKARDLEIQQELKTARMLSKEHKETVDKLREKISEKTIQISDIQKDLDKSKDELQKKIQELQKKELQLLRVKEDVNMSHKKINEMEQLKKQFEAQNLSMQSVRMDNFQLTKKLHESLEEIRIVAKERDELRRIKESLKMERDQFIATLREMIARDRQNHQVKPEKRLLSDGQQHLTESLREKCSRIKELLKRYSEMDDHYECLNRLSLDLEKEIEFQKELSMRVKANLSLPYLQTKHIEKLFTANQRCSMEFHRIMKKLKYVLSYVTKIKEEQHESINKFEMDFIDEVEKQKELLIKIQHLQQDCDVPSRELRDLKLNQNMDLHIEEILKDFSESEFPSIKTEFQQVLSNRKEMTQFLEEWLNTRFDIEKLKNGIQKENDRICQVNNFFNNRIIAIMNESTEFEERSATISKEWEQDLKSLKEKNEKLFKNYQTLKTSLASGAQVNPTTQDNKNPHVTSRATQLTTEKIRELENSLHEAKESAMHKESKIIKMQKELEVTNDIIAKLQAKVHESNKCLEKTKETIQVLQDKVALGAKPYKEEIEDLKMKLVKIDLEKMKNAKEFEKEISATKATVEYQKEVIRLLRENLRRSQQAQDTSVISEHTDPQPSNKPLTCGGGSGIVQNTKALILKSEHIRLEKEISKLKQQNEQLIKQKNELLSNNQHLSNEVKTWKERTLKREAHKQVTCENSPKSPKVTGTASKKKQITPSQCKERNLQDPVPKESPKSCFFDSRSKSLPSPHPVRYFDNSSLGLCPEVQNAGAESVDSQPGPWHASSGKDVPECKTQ

Cc1cccc(C(CCC(N)C(=O)O)(c2ccccc2)c2ccccc2)c1 (racemic)
inhibition [1]: inactive
inhibition [2]: inactive
logP [3]: 2.45
inhibition [4]: inactive
GI50 at 72 h [5]: 38 nM
T/C [6]: 26.3%
logD [7]: 2.45
inhibition [8]: inactive
inhibition [9]: inactive
GI50 (HCT-116): 99 nM
GI50 (NCI-H1299): 137 nM
solubility kinetic [10]: > 100 µM
GI50 (BXPC-3): 144 nM
inhibition [11]: inactive

From ChEMBL document CHEMBL2021885, “Triphenylbutanamines: kinesin spindle protein inhibitors with in vivo antitumor activity” (J Med Chem, 2012)
